Experimental data from US12618112B2, “Epigenetic moderators of naltrexone efficacy in reducing heavy drinking in individuals diagnosed with alcohol use disorder” (MUSC Foundation for Research Development, priority 2021, dated 2026).

What was measured:
[1] = system: individuals with Alcohol Use Disorder; details: cited from earlier work
[2] = system: treatment-seeking AUD patients; assay: 16-week randomized, placebo-controlled naltrexone trial; percent heavy drinking days (PHDD) by promoter/VNTR methylation subgroup; type: in vivo, human; details: for effect of naltrexone, relative to placebo, on PHDD: 16-week trial
Excerpt: Overview. Detailed methods for the parent RCT, including a CONSORT diagram, are described in Anton et al, 2020 and Schacht et al, 2017. The Medical University of South Carolina Institutional Review Board approved all procedures, and all participants provided informed consent before participation. The study consisted of an initial assessment session, a baseline visit, and 9 follow-up visits over the course of a 16-week treatment period. Briefly, participants seeking AUD treatment were recruited from the community with media advertisements, assessed for inclusion/exclusion criteria, and genotyped for rs1799971. One of the aims of the parent RCT was to test the effect of rs1799971 genotype on naltrexone efficacy, so participants who carried the minor (G) allele were over-selected, such that these individuals ultimately comprised ˜50% of the 146 participants randomized to medication.
Participants. Participants were required to be ages 18-70; report heavy drinking (at least five/four standard drinks per day for men/women) on at least 50% of the days in the 90 days before assessment; and meet DSM-IV (Diagnostic and Statistical Manual of Mental Disorders, revised 4th edition) diagnostic criteria for Alcohol Dependence, as assessed by the Structured Clinical Interview for DSM-IV (First et al, 2002). Participants were also required to self-identify as Caucasian or Asian, secondary to low rs1799971 G-allele frequency among individuals of African descent; we previously reported that analysis of population allele frequencies for 50 SNPs included on the methylation assay used here indicated a high degree of correspondence between self-reported and SNP-identified ancestry. […] Exclusion criteria were: current psychotropic medication use other than antidepressants (for which a stable dose for at least one month was required); current DSM-IV Axis I diagnosis or suicidal/homicidal ideation; history of significant medical illness; liver enzyme (ALT or AST) levels>three times normal; and past-month naltrexone, disulfiram, or acamprosate use. Female participants could not be pregnant or nursing. The Table below lists demographic characteristics for the sample. Medication, randomization, and assessment. Participants were required to maintain abstinence for at least four days before medication randomization, and were then urn randomized (Stout et al, 1994) to receive naltrexone (25 mg for two days, then 50 mg thereafter) or placebo for 16 weeks. Randomization was stratified by rs1799971 genotype, with sex, smoking status (non-smoker vs. smoker, defined as ≥10 cigarettes per day), cocaine use, antidepressant use, and AUD family history balanced across medication groups. […] Participants and investigators were blind to genotype and medication assignment. After randomization, participants returned at weeks 1, 2, 3, 4, 6, 8, 10, 12, and 16 for medical management sessions, during which daily drinking since the last visit was assessed with the calendar-based Timeline Follow-back interview (Sobell and Sobell, 1992). Participants who dropped out after randomization were compensated to return at week 16 to provide missing drinking data. Forty participants ultimately dropped out, at similar rates across medication groups, but full drinking data were available on 89% of participants.
Methylation assay. Genomic DNA was quantitated using a Qubit Fluorometer (Thermo Fisher Scientific, Waltham, MA). An Infinium MethylationEPIC BeadChip (Illumina, San Diego, CA), which assays methylation at 866,895 cytosine residues, 99.7% of which are CpG sites, was used to generate a comprehensive genome-wide profile of DNA methylation. For each subject, 500 ng genomic DNA was bisulfate converted, denatured, and amplified, fragmented, resuspended, and hybridized to the BeadChips (eight samples per chip). […]

[3] = month 3, high SLC6A3 promoter and low OPRM1 promoter methylation

SMILES: O=C1CC[C@@]2(O)[C@H]3Cc4ccc(O)c5c4[C@@]2(CCN3CC2CC2)[C@H]1O5 [naltrexone]
- overall effect of naltrexone on heavy drinking ([1]; across all AUD individuals (Maisel et al, 2013)): small
- effect on heavy drinking ([1]; individuals with AUD (Jonas et al., 2014a)): reduces heavy drinking
- effect size (Cohen's d) for PHDD, naltrexone relative to placebo ([2]; across all study months, lower COMT promoter and lower OPRM1 promoter methylation): 0.85
- mean difference between naltrexone and placebo in PHDD ([2]; across all study months, lower COMT promoter and lower OPRM1 promoter methylation (median split)): 19.7 % HDD
- effect size (Cohen's d) for PHDD, naltrexone relative to placebo ([2]; across all study months, lower SLC6A3 VNTR and lower OPRM1 promoter methylation): 1.25
- mean difference between naltrexone and placebo in PHDD ([2]; across all study months, lower SLC6A3 VNTR and lower OPRM1 promoter methylation (median split)): 28.5 % HDD
- simple effect of medication on PHDD ([2]; any time point, any other combination of SLC6A3 and OPRM1 promoter methylation (except high SLC6A3/low OPRM1)): not significant
- heavy drinking days ([2]; lower methylation of OPRM1 and SLC6A3 or COMT promoters, relative to placebo and to higher methylation): significantly fewer heavy drinking days
- effect size (Cohen's d) for PHDD, naltrexone relative to placebo ([2]; month 2, lower SLC6A3 promoter and lower OPRM1 promoter methylation): 0.61
- mean difference between naltrexone and placebo in PHDD ([2]; month 2, lower SLC6A3 promoter and lower OPRM1 promoter methylation (median split), naltrexone 50 mg): 16.2 % HDD
- effect size (Cohen's d) for PHDD, naltrexone relative to placebo [2, 3]: 0.98
- mean difference between naltrexone and placebo in PHDD [2, 3]: 25.7 % HDD
- effect size (Cohen's d) for PHDD, naltrexone relative to placebo ([2]; month 3, lower SLC6A3 promoter and lower OPRM1 promoter methylation): 0.62
- mean difference between naltrexone and placebo in PHDD ([2]; month 3, lower SLC6A3 promoter and lower OPRM1 promoter methylation (median split)): 16.5 % HDD
- effect of naltrexone, relative to placebo, on PHDD ([2]; participants with lower COMT promoter and OPRM1 promoter methylation): reduced PHDD more
- effect of naltrexone, relative to placebo, on PHDD ([2]; participants with lower SLC6A3 VNTR and OPRM1 promoter methylation): reduced PHDD more
- effect of naltrexone, relative to placebo, on PHDD ([2]; participants with lower SLC6A3 promoter and OPRM1 promoter methylation): reduced PHDD more
- effect sizes for naltrexone, relative to placebo, on heavy drinking ([2]; subgroups in which it was most effective): 0.53-1.04
